In patent US10253039B2, “Inhibitors of bacterial DNA gyrase with efficacy against gram-negative bacteria” (priority 2014, dated 2019):
Values after ≈ are worked out from the molar mass of the structure shown. Where two headings read alike, the source gives them in different places.

Experiments:
Format in all cases: cell-based
[1] = tested on: E. coli BW25113; assay: MIC, microdilution in 96-well plates; details: Escherichia coli, read-out: MIC
Method: (§1) A microdilution method in 96-well plates was used and the MIC protocol established by the Clinical Laboratory Standards Institute was followed. From a growing subculture, a 1:10000 inoculum of each strain in Luria-Bertani media was prepared and aliquoted 100 μL in 4 columns of wells, except for the top row wells, which contained 200 μL of inoculum. A solution of gyramide C2 was aliquoted into 3 of the wells containing 200 μL and DMSO was added to the 4th well. The liquid in each of wells was mixed with a multi-channel pipet and 100 μL was transferred to the next well and mixed. The 2-fold dilution was continued down the 96-well plate until 100 μL was left, which was discarded. The plates were incubated at 37° C. with shaking for 16-18 hours. The MIC was determined as the lowest concentration that inhibited growth and had no turbidity by visual inspection.
(§2) Minimum inhibitory concentrations of various gyramide compounds against 20 strains of bacteria were determined using the procedure described above.

[2] = tested on: Edwardsiella tarda; assay: MIC, microdilution in 96-well plates
Method: as §1, §2

[3] = tested on: E. coli JW5503 (deltolC); assay: MIC, 20-strain panel; details: Escherichia coli
Method: as §1, §2

[4] = tested on: E. coli MG1655; assay: MIC, 20-strain panel; details: Escherichia coli, read-out: MIC
Method: as §1, §2

[5] = tested on: Klebsiella pneumoniae subsp. pneumoniae; assay: MIC, 20-strain panel
Method: as §1, §2

[6] = tested on: Salmonella enterica subsp. enterica typhimurium; assay: MIC, 20-strain panel
Method: as §1, §2

[7] = tested on: Shigella flexneri; assay: MIC, 20-strain panel
Method: as §1, §2

[8] = tested on: Staphylococcus aureus subsp. aureus; assay: MIC, 20-strain panel; details: read-out: MIC
Method: as §1, §2

[9] = tested on: Staphylococcus epidermidis; assay: MIC, 20-strain panel
Method: as §1, §2

[10] = tested on: Staphylococcus saprophyticus subsp. saprophyticus; assay: MIC, 20-strain panel
Method: as §1, §2

[11] = tested on: Streptococcus agalactiae; assay: MIC, 20-strain panel
Method: as §1, §2

[12] = tested on: Streptococcus pyogenes; assay: MIC, 20-strain panel
Method: as §1, §2

[13] = Klebsiella pneumoniae subsp. pneumoniae
[14] = Salmonella enterica subsp. enterica Typhimurium
[15] = Staphylococcus aureus subsp. aureus
[16] = E: Klebsiella pneumoniae subsp. pneumoniae
[17] = F: Salmonella enterica subsp. enterica Typhimurium
[18] = H: Staphylococcus aureus subsp. aureus

Structure (SMILES)	MIC ([1]; BW25113, E. coli BW25113) [µg/mL]	MIC [2] [µg/mL]	MIC ([3]; E. coli JW5503 (deltolC)) [µg/mL]	MIC ([4]; MG1655, E. coli MG1655) [µg/mL]	MIC [5, 13] [µg/mL]	MIC [6, 14] [µg/mL]	MIC [7] [µg/mL]	MIC [8, 15] [µg/mL]	MIC [9] [µg/mL]	MIC [10] [µg/mL]	MIC [11] [µg/mL]	MIC [12] [µg/mL]	MIC ([1]; BW25113, B: E. coli BW25113) [µg/mL]	MIC ([2]; D: Edwardsiella tarda) [µg/mL]	MIC ([3]; C: E. coli JW5503 (deltolC)) [µg/mL]	MIC ([4]; MG1655, A: E. coli MG1655) [µg/mL]	MIC [5, 16] [µg/mL]	MIC [6, 17] [µg/mL]	MIC ([7]; G: Shigella flexneri) [µg/mL]	MIC [8, 18] [µg/mL]
CC(C)Oc1ccc(CN2CC[C@@H](NS(=O)(=O)c3ncc[nH]3)C2)cc1 [Compound 136]	> 8	> 8	~8 (≈ 21.9 µM)	> 8	> 8	> 8	> 8	> 8	> 8	> 8	> 8	> 8								
COc1ccc(-c2ccc(CN3CC[C@@H](NS(=O)(=O)c4cccc(C(F)(F)F)c4)C3)cc2)cc1 [Compound 61]									~8 (≈ 16.3 µM)	> 8	> 8	~8 (≈ 16.3 µM)	> 8	> 8	4 (≈ 8.15 µM)	> 8	> 8	> 8	> 8	> 8
O=S(=O)(N[C@@H]1CCN(Cc2ccc(-n3cccn3)cc2)C1)c1cccc(C(F)(F)F)c1 [Compound 35]									> 8	> 8	> 8	> 8	> 8	> 8	1 (≈ 2.22 µM)	> 8	> 8	> 8	> 8	> 8
N#Cc1cccc(S(=O)(=O)N[C@@H]2CCN(Cc3ccc(-c4nccs4)cc3)C2)c1 [Compound 12]									> 8	> 8	> 8	> 8	> 8	> 8	2 (≈ 4.71 µM)	> 8	> 8	> 8	> 8	> 8
CC(C)Oc1ccc(CN2CC[C@@H](NS(=O)(=O)c3cnc4ccsc4c3)C2)cc1 [Compound 164]	> 8	> 8	> 8	> 8	> 8	> 8	> 8	> 8	> 8	> 8	> 8	> 8								
Cc1ccc(S(C)(=O)=O)cc1S(=O)(=O)N[C@@H]1CCN(Cc2ccc(OC(C)C)cc2)C1 [Compound 72]									> 8	> 8	> 8	> 8	> 8	> 8	> 8	> 8	> 8	> 8	> 8	> 8
N#Cc1cccc(S(=O)(=O)N[C@@H]2CCN(Cc3ccc(-n4ccnn4)cc3)C2)c1 [Compound 7]									> 8	> 8	> 8	> 8	> 8	> 8	8 (≈ 19.6 µM)	> 8	> 8	> 8	> 8	> 8
O=S(=O)(N[C@@H]1CCN(Cc2ccc(-c3nccs3)cc2)C1)c1cccc(C(F)(F)F)c1 [Compound 57]									> 8	> 8	> 8	> 8	> 8	> 8	8 (≈ 17.1 µM)	> 8	> 8	> 8	> 8	> 8
O=S(=O)(N[C@@H]1CCN(Cc2ccc(OC3CC3)cc2)C1)c1cncc(F)c1 [Compound 154]	> 8	> 8	> 8	> 8	> 8	> 8	> 8	> 8	> 8	> 8	> 8	> 8								
Cc1ccc(S(C)(=O)=O)cc1S(=O)(=O)N[C@@H]1CCN(Cc2ccc(-c3ccccc3)cc2)C1 [Compound 73]									> 8	> 8	> 8	> 8	> 8	> 8	4 (≈ 8.25 µM)	> 8	> 8	> 8	> 8	> 8
Cc1ccc(S(=O)(=O)N[C@@H]2CCN(Cc3ccc(-c4ccccc4)cc3)C2)cn1 [Compound 174]	> 8	> 8	> 8	> 8	> 8	> 8	> 8	> 8	> 8	> 8	> 8	> 8								
O=S(=O)(N[C@@H]1CCN(Cc2ccc(-c3ccccc3)cc2)C1)c1cccnc1 [Compound 146]	> 8	> 8	8 (≈ 20.3 µM)	> 8	> 8	> 8	> 8	> 8	> 8	> 8	> 8	> 8								
Cc1c(CN2CC[C@@H](NS(=O)(=O)c3cccc(C#N)c3)C2)cnn1-c1ccccc1 [Compound 30]									> 8	> 8	> 8	> 8	> 8	> 8	> 8	> 8	> 8	> 8	> 8	> 8
O=S(=O)(N[C@@H]1CCN(Cc2ccc(-c3cccc(Cl)c3)cc2)C1)c1cccc(C(F)(F)F)c1 [Compound 50]									2 (≈ 4.04 µM)	> 8	> 8	~8 (≈ 16.2 µM)	> 8	> 8	8 (≈ 16.2 µM)	> 8	> 8	> 8	> 8	8 (≈ 16.2 µM)
N#Cc1cccc(S(=O)(=O)N[C@@H]2CCN(Cc3ccc(-c4cncnc4)cc3)C2)c1 [Compound 22]									> 8	> 8	> 8	> 8	> 8	> 8	8 (≈ 19.1 µM)	> 8	> 8	> 8	> 8	> 8
O=C1CCCN1c1ccc(CN2CC[C@@H](NS(=O)(=O)c3cccc(OC(F)(F)F)c3)C2)cc1 [Compound 100]									> 8	> 8	> 8	> 8	> 8	> 8	2 (≈ 4.14 µM)	> 8	> 8	> 8	> 8	> 8
O=S(=O)(N[C@@H]1CCN(Cc2ccn(-c3ccccc3)n2)C1)c1cccc(OC(F)(F)F)c1 [Compound 163]	> 8	> 8	> 8	> 8	> 8	> 8	> 8	> 8	> 8	> 8	> 8	> 8								
Cc1c(CN2CC[C@@H](NS(=O)(=O)c3cccc(C(F)(F)F)c3)C2)cnn1-c1ccccc1 [Compound 56]									> 8	> 8	> 8	> 8	> 8	> 8	> 8	> 8	> 8	> 8	> 8	> 8
O=S(=O)(N[C@@H]1CCN(Cc2ccc(-c3ccccn3)cc2)C1)c1cccc(C(F)(F)F)c1 [Compound 43]									> 8	> 8	> 8	> 8	> 8	> 8	0.5 (≈ 1.08 µM)	> 8	> 8	> 8	> 8	> 8
Cc1ccc(S(=O)(=O)N[C@@H]2CCN(Cc3ccc(OC4CC4)cc3)C2)cn1 [Compound 175]	> 8	> 8	> 8	> 8	> 8	> 8	> 8	> 8	> 8	> 8	> 8	> 8								
Cc1ccc(S(C)(=O)=O)cc1S(=O)(=O)N[C@@H]1CCN(Cc2ccc(OC3CC3)cc2)C1 [Compound 79]									> 8	> 8	> 8	> 8	> 8	> 8	> 8	> 8	> 8	> 8	> 8	> 8
